One data set deals with CCRF-CEM cells. Description: Phosphorylation in uninfected CCRF-CEM cells, effects of dCyd and mycophenolic acid. It is filed as cell-based. The note with it: for increase in the phosphates in the presence of mycophenolic acid / reduction of the amount of phosphates in the presence of dCyd: Fig. 6; for reduction of the amount of phosphates in the presence of dCyd: calculated from the radioactivity in the peaks. On the procedure:
While these findings are similar to those obtained with the isolated viral kinase, they differ from the resulted with the isolated enzyme in that relatively more di- and triphosphate were formed from L-2'CdG.
Identity of the cellular enzyme(s) responsible for the phosphorylation of the enantiomers of 2'CdG. […] 36:291, 1989). To determine if dCyd kinase was involved, studies were carried out in which cells were indubated with D- or L-2'CdG and dCyd, and the formation of phosphates was monitored by HPLC. […] The presence of mycophenolic acid produced an increase in the phosphates of D- or L-2'CdG of 2.5-fold and 1.4-fold, respectively.

The subject of data set [1] is MRC5 cell monolayer cultures. Nature of the data set: Drug cytotoxicity (gross morphology) in MRC5 cell monolayer cultures. Format: cell-based.
Data set [2] has as its system MRC5 cell monolayer cultures. The data set is described as above. Format: cell-based. On the procedure:
(§1) The D- and L-enantiomers of 2'-CdG were prepared from racemic C-2,6-DAPR by an enzymatic method as described above Secrist et al. (J. Med. Chem. 30:746, 1987). The effectiveness of racemic-2'-CdG and of D-2'-CdG in reducing CMV yields in MRC5 cell monolayer cultures was determined by a plaque assay with the results set forth in tables 6 and 7.
The source holds these as a separate data set.

A further data set concerns the target T1, HSV-1 TK (Human herpesvirus 1, UniProt P0DTH5).
T1 construct: HSV thymidine kinase (HSV TK) was isolated from HELA (BU25) cells infected with the SW148 strain of HSV-1; made in house; host or cells: HeLa (BU25) thymidine-kinase-deficient cells infected with HSV-1 strain S148/SW148
Nature of the data set: Competitive inhibition of [3H]-thymidine phosphorylation by partially purified HSV-1 TK. It is filed as biochemical. How it is done:
The Ki's were determined from a plot of the slope of each line versus the concentration of the competitor (D-, L, or D,L-2'CdG) and are summarized below: TABLE 2

The next data set relates to HSV-2 (strain MS, TK+). Nature of the data set: Antiviral activity against HSV-2. Format: cell-based. Conditions: HSV-2. On the procedure:
D-2'-CdG and L-2'-CdG were tested, alongside D,L-2'-CdG, against both HSV-1 (strain 377, TK+; obtained from Dr. Earl Kern, University of Alabama) and HSV-2 (strain MS, TK+; also obtained from Dr. Earl Kern). In these tests (Table 5), Ara-A and acyclovir (ACV) were the positive control drugs. In four tests vs. HSV-1, the antiviral activity (VR) and potency (MIC50) of D-2'-CdG were approximately the same as those of racemic 2-CdG. L-2'-CdG was only modestly active.
These compounds were tested against HSV-2(TK^+). The VR of ACV was somewhat higher than the VR values of D-2'-CdG and D,L-2'-CdG, but the values of MIC50 of the two forms of 2'-CdG were lower. In addition, experiments comparing the antiviral activity D-2'-CdG with acyclovir against HSV-1 in human foreskin fibroblasts have shown an even greater potency, in favor of D-2'-CdG.

For data set [3], the system named is human CMV. Description: Intravitreal human CMV infection in rabbits. It is filed as in vivo, New Zealand white rabbits. Conditions: intravitreal injection, 100 µg in 100 µl, 48-hour intervals beginning at day 4. The text has this: The symptoms included vitritis, iritis, retinal pathology (micro hemorrhages and focal necrosis of the retinal surface), corneal stromal haze and neovascularization, and corneal endothelial pigmented precipitates. […] The intravitreal route offers some significant advantages for intraocular infections including: 1) delivery of maximal concentrations of drug to the desired site of action; 2) increased potential for sustained release (i.e., longer half-life, T1/2) of the drug; and 3) reduced potential for systemic toxicity.

Data set [4] concerns human CMV. Description: In vitro activity against human CMV in human foreskin fibroblast cells. It is filed as cell-based. On the procedure:
The in vitro activity of D-2'-CdG was also compared with the current investigational drug of choice for human CMV, DHPG. These experiments were carried out in human foreskin fibroblast cells.

In a further data set the test system is CMV. Description: CMV yield reduction in MRC5 cell monolayer cultures (plaque assay). The note with it: for CMV Yield PFU/mL: virus controls 1.1 x 10^5; for CMV Yield log10 PFU/mL: virus controls 5.1. It is filed as cell-based, human CMV. How it is done: as §1

These results are taken from patent EP0684822B1, “CARBOCYCLIC DEOXYGUANOSINE ANALOGS FOR THE TREATMENT OF VIRAL INFECTIONS” (SOUTHERN RESEARCH INSTITUTE, priority 1993, dated 1994).

≈ marks a conversion by molar mass, not a printed value.

T1 sequence (P0DTH5 whole entry): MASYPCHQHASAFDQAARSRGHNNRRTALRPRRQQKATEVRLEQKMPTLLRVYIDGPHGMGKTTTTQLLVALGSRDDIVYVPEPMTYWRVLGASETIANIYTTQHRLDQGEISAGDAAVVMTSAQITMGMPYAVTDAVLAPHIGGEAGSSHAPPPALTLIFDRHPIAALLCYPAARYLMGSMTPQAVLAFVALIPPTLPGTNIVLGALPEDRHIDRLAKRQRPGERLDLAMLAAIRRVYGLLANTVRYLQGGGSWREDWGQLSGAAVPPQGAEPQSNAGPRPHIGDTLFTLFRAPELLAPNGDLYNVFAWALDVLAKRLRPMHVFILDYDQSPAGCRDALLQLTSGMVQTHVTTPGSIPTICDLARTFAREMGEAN

Consider `Nc1nc2c(ncn2[C@@H]2C[C@H](CO)[C@@H](O)C2)c(=O)[nH]1` [D-2'-CdG, [1R,3S,4R-(1α,3β,4α)]-D-2-Amino-1,9-dihydro-9-[3-hydroxy-4-(hydroxymethyl)cyclopentyl]-6H-purin-6-one], for which the “increase in the phosphates in the presence of mycophenolic acid” value with CCRF-CEM cells was determined as 2.5 fold. In the data set on CCRF-CEM cells, the “reduction of the amount of phosphates in the presence of dCyd” value was 80-90%. For the same compound, in the data set on CCRF-CEM cells (uninfected CEM cells, Fig. 5), the predominant metabolite result is reported as “the triphosphate”. Also, the “Drug Cytotoxicity (Gross Morphology)” value in data set [1] (0.1 µM) is on record as 0; in data set [1] (1.0 µM), 0; in data set [1] (10 µM), 0; in data set [1] (100 µM), “slight toxicity”; in data set [2] (0.32 µM), 0; in data set [2] (3.2 µM), 0. For the same compound, the results for the “Drug Cytotoxicity (Gross Morphology)” value in data set [2] (32 µM) and in data set [2] (320 µM) were “v. sl. toxicity” and “toxic”, respectively. The compound further returned a Ki at HSV-1 TK of 2100 nM. Moreover, in the data set with HSV-2 (strain MS, TK+), the VR came out at 3.8. The EC50 stood at 0.7 µg/mL (≈ 2.64 µM) in the data set on HSV-2 (strain MS, TK+) (Human alphaherpesvirus 2, read-out: Mic50) and 0.06 µg/mL (≈ 0.226 µM) in the data set on human CMV [4] (Human betaherpesvirus 5, read-out: ED50 value (median dose at which 50% antiviral efficacy is observed)). Moreover, in the data set on human CMV [3], the “clinical effect compared to placebo” value was “effective in reducing the development of retinal pathology and in reducing the severity of the vitritis and iritis”. The “clinical outcome compared to ganciclovir (DHPG) under the same conditions” value in the data set with human CMV [3] was “clinically better than treatment with ganciclovir”. In addition, the “antiviral potency relative to DHPG” value in the data set on human CMV [4] is “more than 3 times”. The “CMV Yield PFU/mL” value with CMV (0.1 µM) is 3.8 x 10^4 PFU/mL; in the data set on CMV (0.32 µM), 1.4 x 10^4 PFU/mL; with CMV (1.0 µM) it was 5.4 x 10^3 PFU/mL; in the data set with CMV (3.2 µM), 8.4 x 10^2 PFU/mL; in the data set with CMV (10 µM) it was 2 x 10^1 PFU/mL; in the data set on CMV (32 µM), 0 PFU/mL. The “CMV Yield PFU/mL” value in the data set with CMV (100 µM) is reported as 0 PFU/mL. The “CMV Yield log10 PFU/mL” value in the data set on CMV (0.1 µM) stood at 4.6 log10 PFU/mL; in the data set with CMV (0.32 µM) it was 4.1 log10 PFU/mL; in the data set with CMV (1.0 µM), 3.7 log10 PFU/mL; with CMV (3.2 µM), 2.9 log10 PFU/mL; with CMV (10 µM), 1.3 log10 PFU/mL. For the same compound, in the data set on CMV (Human betaherpesvirus 5, MRC5, 0.1 µM, read-out: Reduction (%) of CPE by D-2'CdG at Time of Virus Harvest), the inhibition at 0.1 µM was 0%. For the same compound, the inhibition at 0.32 µM in the data set on CMV (Human betaherpesvirus 5, MRC5, 0.32 µM, read-out: Reduction (%) of CPE by D-2'CdG at Time of Virus Harvest) stood at 0%. Also, the inhibition at 1 µM with CMV (Human betaherpesvirus 5, MRC5, 1.0 µM, read-out: Reduction (%) of CPE by D-2'CdG at Time of Virus Harvest) was 10%. The inhibition at 3.2 µM with CMV (Human betaherpesvirus 5, MRC5, 3.2 µM, read-out: Reduction (%) of CPE by D-2'CdG at Time of Virus Harvest) was determined as 10%. For the same compound, the inhibition at 10 µM in the data set on CMV (Human betaherpesvirus 5, MRC5, 10 µM, read-out: Reduction (%) of CPE by D-2'CdG at Time of Virus Harvest) came to 25%. The inhibition at 32 µM in the data set with CMV (Human betaherpesvirus 5, MRC5, 32 µM, read-out: Reduction (%) of CPE by D-2'CdG at Time of Virus Harvest) was determined as 50%. Besides, the inhibition at 100 µM in the data set on CMV (Human betaherpesvirus 5, MRC5, 100 µM, read-out: Reduction (%) of CPE by D-2'CdG at Time of Virus Harvest) turned out to be 50%.

Turning to `Nc1nc2c(ncn2[C@H]2C[C@@H](CO)[C@H](O)C2)c(=O)[nH]1` [L-2'-CdG, [1S,3R,4S-(1α,3β,4α)]-L-2-Amino-1,9-dihydro-9-[3-hydroxy-4-(hydroxymethyl)cyclopentyl]-6H-purin-6-one], in the data set on CCRF-CEM cells, the “increase in the phosphates in the presence of mycophenolic acid” value came to 1.4 fold and the “reduction of the amount of phosphates in the presence of dCyd” value is given as 80-90%. Moreover, in the data set on CCRF-CEM cells (uninfected CEM cells, Fig. 5), the predominant metabolite entry is recorded as “the monophosphate” and the “total amount of phosphates formed, relative to D-2'CdG” value was “about twice that formed from D-2'CdG”. This compound registered a Ki on HSV-1 TK of 3400 nM. The compound further yielded a VR in the data set on HSV-2 (strain MS, TK+) of 0.
